This note sets out measurements from patent US6451732B1, “Herbicidal compositions of glyphosate trimesium” (Syngenta, Limited, priority 1999, dated 2002).

Assay [1] deals with glyphosate tolerant soybeans. In words: Greenhouse postemergence injury to glyphosate tolerant soybeans, glyphosate trimesium and bentazon (Example 2).
Description: (§2) The soil was fortified with fertilizer (10-10-10) prior to seeding The compounds were dissolved in water and applied with a carrier volume of 200 L/ha. All treatments were replicated four times.
(§3) The pots were placed in a greenhouse and maintained under good growing conditions. The greenhouse evironmental systems provided the plants with natural and artificial lighting to attaim 12 hours of light per day. Day and night temperatures were maintained at 29° and 21° C. respectively.
(§4) Plants were grown to the V2 or 2 leaf stage prior to compound application. Plants were sprayed 30.5cm (12 inches) above the foliage with the spray solution as prepared for the pre-emergence test. Treated plants were then returned to a greenhouse and watered daily without wetting the foliage. Injury to plants was evaluated 5 days after treatment (“CDAT”) and 13 DAT. Injury was evaluated as percent control being the total injury to the plants due to all factors including: inhibited emergence, stunting, malformation, albinism, chlorosis, and other types of plant injury.
Assay [2] relates to Ipomoea hederacea (IPOHE). Kind of assay: Field plot injury rating (Example 3). Conditions: Glyphosate TMS 1.5 lb/acre, with ammonium sulfate. In kind it is in vivo. The source says:
(§1) In plots located in Champaign, Ill. (three replications), seeds of the following weed species were planted: Digitaria sanguinalis (“DIGSA”); Setaria faberi (“SETFA”); Setaria glauca (“SETLU”);Echinochloa crusgalli a crusgalli (“ECHCG”); Sorghum vulgare (“SORVU”); Sida spinosa (“SIDSP”); Ipomoea hederacea (“IPOHE”); Amaranthus retroflexus (“AMARE”); Xanthium strumarium (“XANST”); Helianthus annuns (“HELAN”) and Abutilon theophrasti (“ABUTH”). The plots were also planted with two varieties of glyphosate tolerant soybeans (“GLXMA P9294” and “GLXMA P9333”). When the soybeans had reached the 4-5 trifoliate stage, the plots were treated with glyphosate trimesium alone or glyphosate trimesium+bentazon, at the application rates indicated in Table 3. Injury to the species in each plot was tated 7 and 18 dats after application (DAA) of the glyphosate trimesium with or without bentazon and the results are shown in Table 3. The results shown in Table 3 are the mean of three replications.

For assay [3], the system named is Xanthium strumarium (XANST). Kind of assay: Field plot injury rating (Example 3). It is filed as in vivo. The settings on record: Glyphosate TMS 1.5 lb/acre, with ammonium sulfate.
Description: as §1

For assay [4], the system named is Helianthus annuns (HELAN). Kind of assay: Field plot injury rating (Example 3). It is filed as in vivo. Conditions: Glyphosate TMS 1.5 lb/acre, with ammonium sulfate.
Description: as §1

Another assay relates to Sida spinosa (SIDSP). In words: Field plot injury rating (Example 3). Conditions: Glyphosate TMS 1.5 lb/acre, with ammonium sulfate. It is filed as in vivo.
Description: as §1

The test system of assay [5] is Amaranthus retroflexus (AMARE). In words: Field plot injury rating (Example 3). Conditions: Glyphosate TMS 1.5 lb/acre, with ammonium sulfate. It is filed as in vivo.
Description: as §1

The test system of another assay is Setaria glauca (SETLU). In words: Field plot injury rating (Example 3). It is filed as in vivo. Conditions: Glyphosate TMS 1.5 lb/acre, with ammonium sulfate.
Description: as §1

In assay [6] the test system is Abutilon theophrasti (ABUTH). Kind of assay: Field plot injury rating (Example 3). The settings on record: Glyphosate TMS 1.5 lb/acre, with ammonium sulfate. In kind it is in vivo.
Description: as §1

In assay [7] the test system is Echinochloa crusgalli (ECHCG). Kind of assay: Field plot injury rating (Example 3). The settings on record: Glyphosate TMS 1.5 lb/acre, with ammonium sulfate. In kind it is in vivo.
Description: as §1

The subject of a further assay is Setaria faberi (SETFA). Kind of assay: Field plot injury rating (Example 3). Conditions: Glyphosate TMS 1.5 lb/acre, with ammonium sulfate. In kind it is in vivo.
Description: as §1

The next assay concerns Sorghum vulgare (SORVU). Kind of assay: Field plot injury rating (Example 3). In kind it is in vivo. The settings on record: Glyphosate TMS 1.5 lb/acre, with ammonium sulfate.
Description: as §1

The subject of assay [8] is Digitaria sanguinalis (DIGSA). Kind of assay: Field plot injury rating (Example 3). Conditions: Glyphosate TMS 1.5 lb/acre, with ammonium sulfate. It is filed as in vivo.
Description: as §1

The next assay concerns GLXMA P9333. Kind of assay: Field plot injury rating (Example 3). It is filed as in vivo, glyphosate tolerant soybeans. Conditions: Glyphosate TMS 1.5 lb/acre, with ammonium sulfate.
Description: as §1

The test system of a further assay is GLXMA P9294. In words: Field plot injury rating (Example 3). It is filed as in vivo, glyphosate tolerant soybeans. The settings on record: Glyphosate TMS 1.5 lb/acre, with ammonium sulfate.
Description: as §1

Assay [9] relates to glyphosate tolerant soybeans. The settings on record: postemergence.
Description: as §2, §3, §4
Another assay has as its system glyphosate tolerant corn. The settings on record: postemergence.
Setting [10] is: Glyphosate trimesium 750 g/ha, Bentazon 0 g/ha.
[11] abbreviates: Glyphosate trimesium 1500 g/ha, Bentazon 0 g/ha.
Setting [12] is: Glyphosate trimesium 3000 g/ha, Bentazon 0 g/ha.

Read-outs that look alike come from different tables or passages of the source.

Description for glyphosate tolerant corn: as §2, §3, §4

`C[S+](C)C.O=C([O-])CNCP(=O)(O)O` [Glyphosate trimesium, trimethylsulphonium salt of N-phosphonomethylglycine]: the “Soybean injury (percent control) 5 DAT” value in assay [1] (setting [10]) amounted to 13%; in assay [1] (setting [11]), 37%; in [1] (setting [12]), 58%. In addition, the “Soybean injury (percent control) 13 DAT” value in [1] (setting [10]) came to 7%; in [1] (setting [11]), 27%; in [1] (setting [12]), 35%. In addition, the “Injury IPOHE 7 DAA” value in [2] (7 DAA) came to 43. Moreover, the “Injury IPOHE 18 DAA” value in assay [2] (18 DAA) came out at 68. In [3] (7 DAA), the “Injury XANST 7 DAA” value worked out at 99. For the same compound, the “Injury XANST 18 DAA” value in assay [3] (18 DAA) is 100. For the same compound, the “Injury HELAN 7 DAA” value in assay [4] (7 DAA) turned out to be 99. Further, the “Injury HELAN 18 DAA” value in assay [4] (18 DAA) was 100. Besides, in the assay on Sida spinosa (SIDSP) (7 DAA), the “Injury SIDSP 7 DAA” value came out at 60. In addition, the “Injury SIDSP 18 DAA” value with Sida spinosa (SIDSP) (18 DAA) came to 83. For the same compound, the “Injury AMARE 7 DAA” value in assay [5] (7 DAA) was determined as 100. Also, the “Injury AMARE 18 DAA” value in [5] (18 DAA) is recorded as 100. In addition, the “Injury SETLU 7 DAA” value in the assay with Setaria glauca (SETLU) (7 DAA) was found to be 95. Besides, the “Injury SETLU 18 DAA” value with Setaria glauca (SETLU) (18 DAA) is given as 100. In [6] (7 DAA), the “Injury ABUTH 7 DAA” value is given as 40. In addition, the “Injury ABUTH 18 DAA” value in [6] (18 DAA) stood at 80. The “Injury ECHCG 7 DAA” value in [7] (7 DAA) was determined as 67. Further, in assay [7] (18 DAA), the “Injury ECHCG 18 DAA” value was 94. Also, the “Injury SETFA 7 DAA” value in the assay on Setaria faberi (SETFA) (7 DAA) is 96. The “Injury SETFA 18 DAA” value in the assay on Setaria faberi (SETFA) (18 DAA) came out at 100. The “Injury SORVU 7 DAA” value in the assay with Sorghum vulgare (SORVU) (7 DAA) was 93. Moreover, the “Injury SORVU 18 DAA” value in the assay with Sorghum vulgare (SORVU) (18 DAA) came to 100. Further, the “Injury DIGSA 7 DAA” value in [8] (7 DAA) turned out to be 99. For the same compound, in [8] (18 DAA), the “Injury DIGSA 18 DAA” value turned out to be 100. Further, the “Injury GLXMA P9333 7 DAA” value in the assay with GLXMA P9333 (7 DAA) is 5. The “Injury GLXMA P9333 18 DAA” value in the assay on GLXMA P9333 (18 DAA) is listed as 6. In the assay with GLXMA P9294 (7 DAA), the “Injury GLXMA P9294 7 DAA” value is listed as 8. Further, the “Injury GLXMA P9294 18 DAA” value with GLXMA P9294 (18 DAA) was found to be 9.
As for `C[S+](C)C.[Cl-]` [TMS, trimethylsulphonium chloride], in assay [9] (TMS 420 g/ha, Bentazon 0 g/ha), the “Soybean injury (percent control) 5 DAT” value turned out to be 15% and the “Soybean injury (percent control) 13 DAT” value was determined as 13%. Further, in assay [9] (TMS 840 g/ha, Bentazon 0 g/ha), the “Soybean injury (percent control) 5 DAT” value was 24% and the “Soybean injury (percent control) 13 DAT” value came to 18%. In the assay with glyphosate tolerant corn (TMS 420 g/ha, Bentazon 0 g/ha), the “Corn injury (percent control) 5 DAT” value is recorded as 14% and the “Corn injury (percent control) 13 DAT” value was 48%. In the assay with glyphosate tolerant corn (TMS 840 g/ha, Bentazon 0 g/ha), the “Corn injury (percent control) 5 DAT” value is recorded as 19% and the “Corn injury (percent control) 13 DAT” value is 60%.
Take `CC(C)N1C(=O)c2ccccc2NS1(=O)=O` [Bentazon, bentazon]: the “Soybean injury (percent control) 5 DAT” value in [1] (Glyphosate trimesium 0 g/ha, Bentazon 4 g/ha) stood at 0%; in assay [1] (Glyphosate trimesium 0 g/ha, Bentazon 8 g/ha) it was 0%; in [1] (Glyphosate trimesium 0 g/ha, Bentazon 16 g/ha), 0%; in assay [1] (Glyphosate trimesium 0 g/ha, Bentazon 32 g/ha), 0%; in assay [1] (Glyphosate trimesium 0 g/ha, Bentazon 64 g/ha) it was 0%; in assay [9] (TMS 0 g/ha, Bentazon 250 g/ha) it was 2%. The “Soybean injury (percent control) 5 DAT” value in [9] (TMS 0 g/ha, Bentazon 500 g/ha) is recorded as 8%. Besides, the “Corn injury (percent control) 5 DAT” value in the assay on glyphosate tolerant corn (TMS 0 g/ha, Bentazon 250 g/ha) is 0%; with glyphosate tolerant corn (TMS 0 g/ha, Bentazon 500 g/ha), 0%. In addition, the “Corn injury (percent control) 13 DAT” value in the assay on glyphosate tolerant corn (TMS 0 g/ha, Bentazon 250 g/ha) came to 0%; in the assay with glyphosate tolerant corn (TMS 0 g/ha, Bentazon 500 g/ha) it was 0%.
